# Literature values in article PMC3845493 (Molecular pharmaceutics, 2013).
sequence,measurement,value
PARVGLGITTVLTMTTQSSGSRA [Peptide M2GlyR],Aggregation in aqueous solutions,tendency to aggregate in aqueous solutions
